Results: article PMC7691559 (Journal of Pesticide Science, 2020)
Changes are numbered by the printed parent chain.

Assays:
Assay in all cases: spectrophotometric GST assay, nonlinear regression
Assay type in all cases: biochemical
Conditions in all cases: read-out: CDNB / Km; 5 mM GSH, CDNB varied
bmGSTu2 [1] = target: T1, bmGSTu2 (Bombyx mori, UniProt A9XI30)
T1 sequence (A9XI30 1-233): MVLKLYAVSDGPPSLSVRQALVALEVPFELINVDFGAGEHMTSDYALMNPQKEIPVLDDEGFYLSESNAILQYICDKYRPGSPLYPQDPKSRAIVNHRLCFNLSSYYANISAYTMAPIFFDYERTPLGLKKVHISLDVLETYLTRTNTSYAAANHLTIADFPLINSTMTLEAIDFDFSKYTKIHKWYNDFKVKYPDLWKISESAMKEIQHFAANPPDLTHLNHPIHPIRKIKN

bmGSTu2 [2] = target: T2, bmGSTu2 (Bombyx mori, UniProt A9XI30, P162A)
T2 sequence (A9XI30 1-233 P162A): T1 sequence (A9XI30 1-233) with P162A

bmGSTu2 [3] = target: T3, bmGSTu2 (Bombyx mori, UniProt A9XI30, S166A)
T3 sequence (A9XI30 1-233 S166A): T1 sequence (A9XI30 1-233) with S166A

bmGSTu2 [4] = target: T4, bmGSTu2 (Bombyx mori, UniProt A9XI30, N102A)
T4 sequence (A9XI30 1-233 N102A): T1 sequence (A9XI30 1-233) with N102A

Compound: O=[N+]([O-])c1ccc(Cl)c([N+](=O)[O-])c1 [CDNB, 1-chloro-2,4-dinitrobenzene]
- Km (bmGSTu2 [1]): 280 µM
- Km (bmGSTu2 [2]): 2100 µM
- Km (bmGSTu2 [3]): 720 µM
- Km (bmGSTu2 [4]): 940 µM
